Structures can show the parent of a compound that is named as a salt.
Key:
[1] = molecular target: T1, 5-hydroxytryptamine (5-HT) reuptake sites (Rattus norvegicus, UniProt P31652); assay: displacement of [3H]paroxetine from 5-HT reuptake sites, frontal cortical membranes; format: binding; details: 10^-6 M test compound, [3H]paroxetine 30 pM, one test only, read-out: 5-HT uptake (% displacement of specific binding of tritiated ligand)
T1 construct: Frontal cortical tissue from the brains of male Sprague-Dawley rats; from tissue; host or cells: rat brain frontal cortex (crude synaptosomes in A2, washed membranes in A5)
Experimental: Frontal cortical tissue from the brains of male Charles River rats weighing 150-250 g was homogenised in ice-cold 0.25M sucrose (1:30 w/v) using a Kinematic polytron (speed setting 6 for 30 seconds) and centrifuged at 1000 g for 12 minutes. The supernatant was stored on ice and the pellet was resuspended in 0.25M sucrose (1:20 w/v) and centrifuged at 850 g for 10 minutes. Combined supernatants were diluted to 1:100 w/v with ice-cold 50 mM Tris-HCl, pH 7.5 (at 25° C.) containing 120 mM sodium chloride and 5 mM potassium chloride (Tris buffer) and centrifuged at 40,000 g for 10 minutes. The resulting pellet was resuspended in 50 mM Tris buffer (1:100 w/v) and recentrifuged at 40,000 g for 10 minutes. The final pellet was resuspended in 50 mM Tris buffer (equivalent to 2 mg wet weight of tissue/ml) and used immediately in the binding assay. All centrifugations were carried out at 4° C.
Membranes (1000 μl; equivalent to 2 mg wet weight of tissue/tube) were incubated with 200 μl [^3 H]paroxetine at a single concentration of 30 pM and 200 μl of distilled water (total binding) or 200 μl of test compound (10^-6 M) or 200 μl of citalopram (1 μM; non-specific binding) for 2 h at 22° C.
Membrane bound radioactivity was recovered by filtration under vacuum through Whatman GFIC filters using a Brandel cell harvester. Filters were rapidly washed with 16 ml ice-cold 50 mM Tris buffer and radioactivity determined by liquid scintillation counting (2 ml Packard MV Gold scintillator).
(§1) For each of these tests measuring the ability of compounds of Formula I to displace standard ligands from dopamine (DA), 5-hydroxytryptamine (5-HT) and noradrenaline (NA) reuptake sites in vitro, the percentage displacement of specific binding of tritiated ligand by 10^-6 M test compound was calculated in the following way:
(§2) Firstly, specific binding of tritiated ligand in the absence (A) and presence (B) of test compound was determined:
(§3) In the absence of compound:
(§4) A (dpm)=Total binding (dpm)-Non-specific binding (dpm)
(§5) In the presence of compound (10^-6 M):
(§6) B (dpm)=Binding at 10^-6 M (dpm)-Non-specific binding (dpm)
(§7) The specific binding of tritiated ligand in the presence (B) of compound was then converted to a percentage of specific binding of tritiated ligand in the absence (A) of compound:
(§8) % Specific binding at 10^-6 M=B (dpm)/A(dpm)×100
(§9) The percentage displacement of specific binding of trtiated ligand by the test compound (10^-6 M) was then obtained by subtraction of the percentage specific binding in the presence of compound from the percentage specific binding in the absence of compound, which is taken as the maximum binding and so equals 100%:
(§10) % Displacement at 10^-6 M=100-% Specific binding at 10^-6 M.
(§11) The values given below in Table 2 for examples 6 to 76 are % displacement of specific binding of tritiated ligand by 10^-6 M test compound and represent results from one test only. IA refers to <50% displacement.

[2] = molecular target: T2, dopamine (DA) reuptake sites (Rattus norvegicus, UniProt P23977); assay: displacement of [3H]GBR 12935 from dopamine reuptake sites, striatal membranes; format: binding; details: 10^-6 M test compound, [3H]GBR 12935 1 nM, one test only, read-out: DA uptake (% displacement of specific binding of tritiated ligand)
T2 construct: Striatal tissue from the brains of male Charles River rats weighing 150-250 g; from tissue; host or cells: rat brain striatum (crude synaptosomes in A1, washed membranes in A4)
Experimental: Striatal tissue from the brains of male Charles River rats weighing 150-250 g was homogenised in ice-cold 0.32M sucrose (1:80 w/v) using a motor driven teflon pestle (12 strokes, 800 rpm) and centrifuged at 1000 g for 12 minutes. The supernatant was stored on ice and the pellet was resuspended in 0.32M sucrose (1:80 w/v) and centrifuged at 850 g for 10 minutes. Combined supernatants were diluted to 1:320 w/v with ice-cold 50 mM Tris-HCl, pH 7.4 (at 25° C.) containing 200 mM sodium chloride and 5 mM potassium chloride (Tris buffer) and centrifuged at 40,000 g for 10 minutes. The resulting pellet was resuspended in 10 ml of 50 mM Tris buffer, incubated at 37° C. for 10 min, diluted in 50 mM Tris buffer (1:320 w/v) and recentrifuged at 40,000 g for 10 minutes. The final pellet was resuspended in 50 mM Tris buffer (equivalent to 1.25 mg wet weight of tissue/ml) and used immediately in the binding assay. All centrifugations were carried out at 4° C.
Membranes (800 μl; equivalent to 1 mg wet weight of tissue/tube) were incubated with 100 μl [^3 H]GBR 12935 at a single concentration of 1 nM and 100 μl of distilled water (total binding) or 100 μl of test compound (10^-6 M) or 100 μl of mazindol (1 μM; non-specific binding) for 90 min at 4° C.
Membrane bound radioactivity was recovered by filtration under vacuum through Whatman GF/C filters, pre-soaked for 1 h in 0.5% polyethylenimine,using a Brandel cell harvester. Filters were rapidly washed with 16 ml of ice-cold 50 mM Tris-HCl, pH 7.4 and radioactivity determined by liquid scintillation counting (2 ml Packard MV Gold scintillator).
as §1, §2, §3, §4, §5, §6, §7, §8, §9, §10, §11

[3] = molecular target: T3, noradrenaline (NA) reuptake sites (Rattus norvegicus, UniProt Q63380); assay: displacement of [3H]nisoxetine from noradrenaline reuptake sites, frontal cortical membranes; details: 10^-6 M test compound, [3H]nisoxetine 0.6 nM, one test only, read-out: NA uptake (% displacement of specific binding of tritiated ligand)
T3 construct: Frontal cortical tissue from the brains of male Sprague-Dawley rats; from tissue; host or cells: rat brain frontal cortex (crude synaptosomes in A3, washed membranes in A6)
Experimental: Frontal cortical tissue from the brains of male Charles River rats weighing 150-250 g was homogenised in ice-cold 50 mM Tris-HCl, pH 7.4 (at 25° C.) containing 120 mM sodium chloride and 5 mM potassium chloride (Tris buffer; 1:60 w/v) using a Kinematic polytron (speed setting 6 for 30 seconds) and centrifuged at 40,000 g for 10 minutes. The supernatant was discarded and the pellet rehomogenised in Tris buffer, 1:60 w/v, and centrifuged at 40,000 g for 10 minutes. This step was repeated twice more so that, in total, the brain tissue was homogenised and centrifuged four times. The final pellet was resuspended in 50 mM Tris-HCl, pH 7.4 containing 300 mM sodium chloride and 5 mM potassium chloride (equivalent to 25 mg wet weight of tissue/ml) and used immediately in the binding assay. All centrifugations were performed at 4° C.
Membranes (400 μl; equivalent to 10 mg wet weight of tissue/tube) were incubated with 50 μl [^3 H]nisoxetine at a single concentration of 0.6 nM and 50 μl of distilled water (total binding) or 50 μl of test compound (10^-6 M) or 50 μl of mazindol (1 μM; non-specific binding) for 4 h at 4° C.
Membrane bound radioactivity was recovered by filtration under vacuum through Skatron 11734 filters using a Skatron cell harvester. Filters were rapidly washed with ice-cold 50 mM Tris-HCl, pH 7.4 containing 120 mM sodium chloride and 5 mM potassium chloride (wash setting 9,9,0) and radioactivity determined by liquid scintillation counting (1 ml Packard MV Gold scintillator).
as §1, §2, §3, §4, §5, §6, §7, §8, §9, §10, §11

T1 sequence (P31652 whole entry): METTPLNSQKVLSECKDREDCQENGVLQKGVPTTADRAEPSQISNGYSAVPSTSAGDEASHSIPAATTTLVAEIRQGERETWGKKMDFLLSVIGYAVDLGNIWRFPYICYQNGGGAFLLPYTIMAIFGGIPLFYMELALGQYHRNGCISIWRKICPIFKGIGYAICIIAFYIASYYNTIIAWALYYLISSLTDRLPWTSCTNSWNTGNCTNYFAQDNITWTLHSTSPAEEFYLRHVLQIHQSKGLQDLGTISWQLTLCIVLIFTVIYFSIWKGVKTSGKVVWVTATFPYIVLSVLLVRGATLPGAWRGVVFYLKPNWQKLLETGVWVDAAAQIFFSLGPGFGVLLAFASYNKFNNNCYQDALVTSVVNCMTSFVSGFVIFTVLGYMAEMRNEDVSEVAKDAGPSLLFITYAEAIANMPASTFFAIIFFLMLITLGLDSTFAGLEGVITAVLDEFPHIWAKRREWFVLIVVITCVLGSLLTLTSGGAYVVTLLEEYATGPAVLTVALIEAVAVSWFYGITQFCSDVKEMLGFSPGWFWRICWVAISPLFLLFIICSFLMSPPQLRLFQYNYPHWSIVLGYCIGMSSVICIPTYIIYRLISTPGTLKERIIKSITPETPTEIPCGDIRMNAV
T3 sequence (Q63380 1-617): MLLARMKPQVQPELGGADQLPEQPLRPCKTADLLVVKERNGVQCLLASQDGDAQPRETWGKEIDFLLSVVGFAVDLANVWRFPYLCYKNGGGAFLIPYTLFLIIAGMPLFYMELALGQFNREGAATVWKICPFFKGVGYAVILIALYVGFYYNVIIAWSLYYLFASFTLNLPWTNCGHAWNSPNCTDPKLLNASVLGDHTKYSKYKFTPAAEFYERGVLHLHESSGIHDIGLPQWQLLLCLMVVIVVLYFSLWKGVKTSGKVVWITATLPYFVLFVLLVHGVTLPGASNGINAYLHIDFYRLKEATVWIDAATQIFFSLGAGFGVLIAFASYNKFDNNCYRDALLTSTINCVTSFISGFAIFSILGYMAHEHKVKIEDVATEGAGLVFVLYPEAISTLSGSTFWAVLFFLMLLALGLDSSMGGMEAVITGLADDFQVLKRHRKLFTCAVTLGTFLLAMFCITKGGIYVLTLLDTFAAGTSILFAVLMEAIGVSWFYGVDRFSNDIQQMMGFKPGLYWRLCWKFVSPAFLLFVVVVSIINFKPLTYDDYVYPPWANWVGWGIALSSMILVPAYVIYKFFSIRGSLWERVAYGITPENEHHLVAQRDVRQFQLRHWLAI
T2 sequence (P23977 whole entry): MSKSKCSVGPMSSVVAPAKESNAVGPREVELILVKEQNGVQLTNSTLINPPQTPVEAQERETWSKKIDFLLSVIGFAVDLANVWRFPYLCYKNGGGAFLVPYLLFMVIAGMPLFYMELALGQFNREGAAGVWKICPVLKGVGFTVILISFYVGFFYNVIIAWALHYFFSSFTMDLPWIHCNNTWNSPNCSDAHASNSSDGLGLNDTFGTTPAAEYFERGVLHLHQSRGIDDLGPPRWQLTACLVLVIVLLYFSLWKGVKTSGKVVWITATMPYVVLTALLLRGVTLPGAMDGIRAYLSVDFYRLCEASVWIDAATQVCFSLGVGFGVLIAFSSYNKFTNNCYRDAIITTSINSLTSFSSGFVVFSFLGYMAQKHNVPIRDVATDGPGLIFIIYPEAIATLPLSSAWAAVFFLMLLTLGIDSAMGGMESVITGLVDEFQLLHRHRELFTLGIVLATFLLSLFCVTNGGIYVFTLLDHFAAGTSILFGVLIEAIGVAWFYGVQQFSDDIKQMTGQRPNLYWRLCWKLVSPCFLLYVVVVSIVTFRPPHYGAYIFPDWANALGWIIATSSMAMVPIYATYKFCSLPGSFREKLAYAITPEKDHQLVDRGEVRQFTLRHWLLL

Row | SMILES | inhibition at 1 µM [1] | inhibition at 1 µM [2] | inhibition at 1 µM [3]
1 | Clc1ccc(C2(C3=C(Cc4ccccc4)SC4=NCCN43)CCC2)cc1 [Example 7, 2-benzyl-3-[1-(4-chlorophenyl)cyclobutyl]-5,6-dihydroimidazo[2,1-b]-thiazole hydrobromide] | 85% | 69% | < 50%
2 | Cc1ccc(N=c2scc(C3(c4ccc5ccccc5c4)CCC3)n2-c2ccc(C)cc2)cc1 [Example 50, 4-[1-(2-Naphthyl)cyclobutyl]-3-(p-tolyl)-2-(p-tolylimino)-2,3-dihydrothiazole hydrobromide] | < 50% | 68% | < 50%
3 | CCCCN=c1scc(C(C)(C)c2ccc(Cl)cc2)n1CCCC [Example 62, 3-Butyl-2-butylimino-4-[1-(4-chlorophenyl)-1-methylethyl]-2,3-dihydrothiazole hydrobromide] | < 50% | 55% | < 50%
4 | c1ccc(CCN=c2scc(C3(c4ccc5ccccc5c4)CCC3)n2CCc2ccccc2)cc1 [Example 46, 4-1-(2-Naphthyl)cyclobutyl]-3-phenethyl-2-phenethylimino-2,3-dihydrothiazole hydrobromide] | 51% | 98% | < 50%
5 | CCCN=c1scc(C2(c3ccc(Cl)c(Cl)c3)CCC2)n1CCC [Example 16, 4-[1-(3,4-Dichlorophenyl)cyclobutyl]-3-propyl-2-propylimino-2,3-dihydrothiazole hydrobromide] | 102% | 116% | 56%
6 | c1cncc(CN=c2scc(C3(c4ccc5ccccc5c4)CCC3)n2Cc2cccnc2)c1 [Example 47, 4-[1-(2-Naphthyl)cyclobutyl]-3-(3-pyridylmethyl)-2-(3-pyridylmethylimino)-2,3-dihydrothiazole hydrobromide] | 99% | 109% | 92%
7 | CC(C)N=c1scc(C2(c3ccc(Cl)c(Cl)c3)CCC2)n1C(C)C [Example 17, 4-[1-(3,4-Dichlorophenyl)cyclobutyl]-3-isopropyl-2-isopropylimino-2,3-dihydrothiazole hydrobromide] | 95% | 112% | 63%
8 | COc1ccc(CCN=c2scc(C3(c4ccc(Br)cc4)CCC3)n2CCc2ccc(OC)c(OC)c2)cc1OC [Example 66, 4-[1-(4-Bromophenyl)cyclobutyl]-3-(3,4-dimethoxyphenethyl)-2-(3,4-dimethoxyphenethylimino)-2,3-dihydrothiazole hydrobromide] | < 50% | 58% | < 50%
9 | Clc1ccc(C2=C(C3(c4ccc(Cl)c(Cl)c4)CCC3)N3CCN=C3S2)cc1 [Example 10, 2-(4-chlorophenyl)-3-[1-(3,4-dichlorophenyl)cyclobutyl]-5,6-dihydroimidazo[2,1-b]thiazole hydrobromide] | 57% | 85% | < 50%
10 | CCCCN=c1scc(C2(c3ccc(Cl)c(Cl)c3)CCC2)n1CCCC [Example 18, 3-Butyl-2-butylimino-4-[1-(3,4-dichlorophenyl)cyclobutyl]-2,3-dihydrothiazole hydrobromide] | 95% | 106% | 63%
11 | COc1ccc(CCN=c2scc(C3(c4ccc(Cl)c(Cl)c4)CCC3)n2CCc2ccc(OC)c(OC)c2)cc1OC [Example 33, 4-[1-(3,4-Dichlorophenyi)cyclobutyl]-3-(3,4-dimethoxyphenethyl)-2-(3,4-dimethoxyphenethylimino)-2,3-dihydnothiazole hydrobromide] | 63% | 99% | < 50%
12 | Clc1ccc(C2(c3csc(=NCc4ccccc4)n3Cc3ccccc3)CCC2)cc1Cl [Example 22, 3-Benzyl-2-benzylimino-4-[1-(3,4-dichlorophenyl)cyclobutyl]-2,3-dihydrothiazole hydrobromide] | < 50% | 79% | < 50%
13 | c1coc(CN=c2scc(C3(c4ccc5ccccc5c4)CCC3)n2Cc2ccco2)c1 [Example 48, 3-Furfuryl-2-furfurylimino-4-[1-(2-naphthyl)cyclobutyl]-2,3-dihydrothiazolehydrobromide] | 94% | 101% | < 50%
14 | Clc1ccc(C2(C3=C(c4ccccc4)SC4=NCCN43)CCC2)cc1Cl [Example 9, 3-[1-(3,4-dichlorophenyl)cyclobutyl]-2-phenyl-5,6-dihydroimidazo[2,1-b]thiazole hydrobromide] | 75% | 60% | < 50%
15 | c1ccc2cc(C3(c4csc(=NC5CCCC5)n4C4CCCC4)CCC3)ccc2c1 [Example 53, 3-Cyclopentyl-2-cyclopentylimino-4-[1-(2-naphthyl)cyclobutyl]-2,3-dihydrothiazole hydrobromide] | 71% | 80% | < 50%
16 | CSc1ccc(C2(C3=CSC4=NCCN34)CCC2)cc1 [Example 76, 3-[1-(4-Methylthiophenyl)cyclobutyl]-5,6-dihydroimidazo[2,1-b]thiazole hydrobromide] | 81% | < 50% | < 50%

From patent publication US6187802A, “Substituted 4-arylmethylene-2-imino-2,3-dihydrothiazoles and derivatives and their pharmaceutical use” (Knoll Aktiengesellschaft, priority 1997, dated 2001)
